# Test results taken from patent US12264134B2 (Merck Sharp & Dohme LLC, priority 2018, dated 2025).
# Target: IDO1 (Homo sapiens, UniProt P14902)
# Assay: IDO1 Cellular Assay in HeLa Cells Stimulated with IFNγ
# Assay type: cell-based
# Conditions: read-out: HeLa Cell Potency, IC50
# Description: IDO1 Cellular Assay in HeLa Cells Stimulated with IFNγ
# HeLa cells were cultured in complete HeLa culture medium (90% EMEM, 10% heat-inactivated fetal bovine serum) and expanded to about 1×10^9 cells. The cells were then collected and frozen down at 1×10^7 cells/vial in 1 mL frozen medium (90% complete HeLa culture medium, 10% DMSO).
# Compounds to be tested were serially diluted in ten 3-fold steps in DMSO starting from 10 mM DMSO stocks in Echo low volume plate(s). Compound dilutions or DMSO alone were then dispensed from the dilution plate(s) into Greiner black 384-well assay plate(s) (catalog #781086, 50 nL/well) using an Echo 550 acoustic liquid handler (Labcyte).
# Frozen HeLa cells were thawed and transferred into HeLa assay medium (99% complete HeLa culture medium, 1% Pen/Strep) with 20 mL medium/vial of cells. The cells were spun down at 250 g in a table top centrifuge for 5 min and suspended in same volume of HeLa assay medium. The cells were then counted and adjusted to a density of 2×10^5 cells/mL in HeLa assay medium. Sterile L-tryptophan were added to the cells with final concentration of 300 uM L-tryptophan. A small aliquot (2 mL/plate) of HeLa cells were set aside and were not treated with IFNγ, to serve as the Max-E control.
# HeLa cells with and without IFNγ were dispensed to the respective wells of 384-well assay plates containing the compounds. The plates were incubated for about 48 hours at a 37° C., 5% CO2 incubator. Afterwards, 12 μL of 0.5 M methyl isonipecotate in dimethyl sulfoxide were added into each well and the plates were sealed and incubated at 37° C. without CO2 overnight. The plates were centrifuged for 1 min at 200×g. The resulting fluorescence was measured in a Spectramax plate reader (Molecular Devices) with a 400 nm excitation filter and a 510 nm emission filter.
# The fluorescence intensity of each well was corrected for the background observed in wells with non-IFNγ-treated cells and was expressed as a fraction of the intensity observed in wells of IFNγ-treated cells and DMSO only. Potencies were calculated by linear least squares fit to the four parameter logistic IC50 equation.
# Chain of IDO1 (P14902 whole entry): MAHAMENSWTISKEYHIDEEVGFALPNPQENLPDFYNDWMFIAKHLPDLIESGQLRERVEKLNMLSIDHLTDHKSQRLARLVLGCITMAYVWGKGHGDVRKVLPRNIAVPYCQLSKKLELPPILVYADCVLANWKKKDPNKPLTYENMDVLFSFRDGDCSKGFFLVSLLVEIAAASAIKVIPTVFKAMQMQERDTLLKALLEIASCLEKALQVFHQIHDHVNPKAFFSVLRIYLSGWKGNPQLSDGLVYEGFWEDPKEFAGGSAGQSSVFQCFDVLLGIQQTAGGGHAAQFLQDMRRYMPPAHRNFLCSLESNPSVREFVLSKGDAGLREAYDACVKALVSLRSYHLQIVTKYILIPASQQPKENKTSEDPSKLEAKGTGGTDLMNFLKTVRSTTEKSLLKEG
row,IC50 [nM],SMILES
1,26.5,"Cc1cccc(N2CCN(C(=O)Cn3nc(C(=O)N4CCN(C(=O)CO)CC4)c4c3CCC4)CC2)c1C [Example 85, 1-[4-(2,3-dimethylphenyl)piperazin-1-yl]-2-{3-[4-(hydroxyacetyl)piperazine-1-carbonyl]-5,6-dihydrocyclopenta[c]pyrazol-1(4H)-yl}ethan-1-one]"
2,5.31,"Cc1c(N2CCN(C(=O)Cn3nc(C(=O)N4CCC(O)(CF)CC4)c4c3CCC4)CC2)ccc(F)c1Cl [Example 445, 1-(4-(3-chloro-4-fluoro-2-methylphenyl)piperazin-1-yl)-2-(3-(4-(fluoromethyl)-4-hydroxypiperidine-1-carbonyl)-5,6-dihydrocyclopenta[c]pyrazol-1(4H)-yl)ethan-1-one]"
3,76.9,Cc1cc(N2CCN(C(=O)Cn3nc(C(=O)N4C[C@@H](C)O[C@@H](C)C4)c4c3CCC4)CC2)ccc1F [Example 53]
4,1.62,"Cc1cccc(N2CCN(C(=O)Cn3nc(C(=O)N4CCC5(CC4)CNC(=O)CO5)c4c3CCC4)CC2)c1C [Example 190, 9-(1-{2-[4-(2,3-dimethylphenyl)piperazin-1-yl]-2-oxoethyl}-1,4,5,6-tetrahydrocyclopenta[c]pyrazole-3-carbonyll)-1-oxa-4,9-diazaspiro[5.5]undecan-3-one]"
5,6.69,"Cc1cccc(N2CCN(C(=O)Cn3nc(C(=O)N4C[C@@H](C)O[C@@H](C)C4)c4c3CC[C@@H](C(F)(F)F)C4)CC2)c1C [Example 295, 2-[(5R)-3-[(2R,6S)-2,6-dimethylmorpholine-4-carbonyl]-5-(trifluoromethyl)-4,5,6,7-tetrahydro-1H-indazol-1-yl]-1-[4-(2,3-dimethylphenyl)piperazin-1-yl]ethan-1-one]"
6,1.09,"Cc1c(Cl)cccc1N1CCN(C(=O)Cn2nc(C(=O)N3CCC(O)(CF)CC3)c3c2CCCC3)CC1 [Example 407, 1-(4-(3-chloro-2-methylphenyl)piperazin-1-yl)-2-(3-(4-(fluoromethyl)-4-hydroxypiperidine-1-carbonyl)-4,5,6,7-tetrahydro-1H-indazol-1-yl)ethanone]"
7,45.2,"Cc1cc(F)ccc1N1CCN(C(=O)Cn2nc(C(=O)N3C[C@@H](C)O[C@@H](C)C3)c3c2CCC3)CC1 [Example 46, 2-{3-[(2R,6S)-2,6-dimethylmorpholine-4-carbonyl]-5,6-dihydrocyclopenta[c]pyrazol-1(4H)-yl}-1-[4-(4-fluoro-2-methylphenyl)piperazin-1-yl]ethan-1-one]"
8,3.96,"Cc1cccc(N2CCN(C(=O)Cn3nc(C(=O)N4CCC(O)C(F)(F)C4)c4c3CCC4)CC2)c1C (centres unmarked) [Example 149, 2-[3-(3,3-difluoro-4-hydroxypiperidine-1-carbonyl)-5,6-dihydrocyclopenta[c]pyrazol-1(4H)-yl]-1-[4-(2,3-dimethylphenyl)piperazin-1-yl]ethan-1-one]"
9,5.66,"Cc1c(C(F)F)cccc1N1CCN(C(=O)Cn2nc(C(=O)N3CCO[C@@H](CO)C3)c3c2C[C@H]2C[C@@H]32)CC1 [Example 350, 1-(4-(3-(difluoromethyl)-2-methylphenyl)piperazin-1-yl)-2-((3bR,4aR)-3-((R)-2-(hydroxymethyl)morpholine-4-carbonyl)-3b,4,4a,5-tetrahydro-1H-cyclopropa[3,4]cyclopenta[1,2-c]pyrazol-1-yl)ethanone]"
10,5.8,"Cc1cccc(N2CCN(C(=O)Cn3nc(C(=O)N4CCC5(CC4)CN(C)C(=O)O5)c4c3CCC4)CC2)c1C [Example 81, 8-(1-(2-(4-(2,3-dimethylphenyl)piperazin-1-yl)-2-oxoethyl)-1,4,5,6-tetrahydrocyclopenta[c]pyrazole-3-carbonyl)-3-methyl-1-oxa-3,8-diazaspiro[4.5]decan-2-one]"
11,22.4,"COCC(=O)N1CCN(C(=O)c2nn(CC(=O)N3CCN(c4cccc(C)c4C)CC3)c3c2CCC3)CC1 [Example 399, 1-(4-(2,3-dimethylphenyl)piperazin-1-yl)-2-(3-(4-(2-methoxyacetyl)piperazine-1-carbonyl)-5,6-dihydrocyclopenta[c]pyrazol-1(4H)-yl)ethanone]"
12,498,"Cc1cccc(N2CCN(C(=O)Cn3nc(C(=O)N4CCC5(CCNC5)CC4)c4c3CCC4)CC2)c1C [Example 175, 2-[3-(2,8-diazaspiro[4.5]decane-8-carbonyl)-5,6-dihydrocyclopenta[c]pyrazol-1(4H)-yl]-1-[4-(2,3-dimethylphenyl)piperazin-1-yl]ethan-1-one]"
13,3440,"O=C(Cn1nc(C(=O)N2CCC(O)CC2)c2c1CCC2)N1CCN(C2CCCc3ccccc32)CC1 (single isomer, unassigned) [Example 431]"
14,7.91,"Cc1cccc(N2CCN(C(=O)Cn3nc(C(=O)N4CCOCC4CO)c4c3C[C@H]3C[C@@H]43)CC2)c1C (stereo partly drawn) [Example 267, 1-[4-(2,3-dimethylphenyl)piperazin-1-yl]-2-{(3bR,4aR)-3-[3-(hydroxymethyl)morpholine-4-carbonyl]-3b,4,4a,5-tetrahydro-1H-cyclopropa[3,4]cyclopenta[1,2-c]pyrazol-1-yl}ethan-1-one]"
15,146,"COc1cc(F)c(N2CCN(C(=O)Cn3nc(C(=O)N4C[C@@H](C)O[C@@H](C)C4)c4c3CCC4)CC2)cc1F [Example 62, 1-[4-(2,5-difluoro-4-methoxyphenyl)piperazin-1-yl]-2-{3-[(2R,6S)-2,6-dimethylmorpholine-4-carbonyl]-5,6-dihydrocyclopenta[c]pyrazol-1(4H)-yl}ethan-1-one]"
16,2.95,"Cc1cccc(N2CCN(C(=O)Cn3nc(C(=O)N4CCC(N5CCC5)CC4)c4c3C[C@H]3C[C@@H]43)CC2)c1C [Example 258, 2-{(3bR,4aR)-3-[4-(azetidin-1-yl)piperidine-1-carbonyl]-3b,4,4a,5-tetrahydro-1H-cyclopropa[3,4]cyclopenta[1,2-c]pyrazol-1-yl}-1-[4-(2,3-dimethylphenyl)piperazin-1-yl]ethan-1-one]"
17,36.8,"Cc1cccc(N2CCN(C(=O)Cn3nc(C(=O)N4CC[C@H](N)C(F)(F)C4)c4c3CCC4)CC2)c1C (single isomer, unassigned) [Example 209, [(4S or 4R)-1-[1-[2-[4-(2,3-dimethylphenyl)piperazin-1-yl]-2-oxo-ethyl]-5,6-dihydro-4H-cyclopenta[c]pyrazole-3-carbonyl]-3,3-difluoro-4-piperidyl]ammonium;2,2,2-trifluoroactate]"
18,5.79,"Cc1cccc(N2CCN(C(=O)Cn3nc(C(=O)N4CCC5(C4)CC5(F)F)c4c3CCC4)CC2)c1C (centres unmarked) [Example 171, 2-[3-(1,1-difluoro-5-azaspiro[2.4]heptane-5-carbonyl)-5,6-dihydrocyclopenta[c]pyrazol-1(4H)-yl]-1-[4-(2,3-dimethylphenyl)piperazin-1-yl]ethan-1-one]"
19,1.38,"Cc1c(C(F)F)cccc1N1CCN(C(=O)Cn2nc(C(=O)N3CC[C@H](O)[C@H](F)C3)c3c2C[C@H]2C[C@@H]32)CC1 [Example 348, 1-(4-(3-(difluoromethyl)-2-methylphenyl)piperazin-1-yl)-2-((3bR,4aR)-3-((3R,4S)-3-fluoro-4-hydroxypiperidine-1-carbonyl)-3b,4,4a,5-tetrahydro-1H-cyclopropa[3,4]cyclopenta[1,2-c]pyrazol-1-yl)ethanone]"
20,1.38,"Cc1cccc(N2CCN(C(=O)Cn3nc(C(=O)N4CCCCC45CC5)c4c3C[C@H]3C[C@@H]43)CC2)c1C [Example 215, 2-[(3bR,4aSR)-3-(4-azaspiro[2.5]octane-4-carbonyl)-3b,4,4a,5-tetrahydro-1H-cyclopropa[3,4]cyclopenta[1,2-c]pyrazol-1-yl]-1-[4-(2,3-dimethylphenyl)piperazin-1-yl]ethan-1-one]"
21,92.4,"Cc1cccc(N2CCN(C(=O)Cn3nc(C(=O)N4CCC(O)CC4)c4c3CCC4C(F)F)CC2)c1C (racemic) [Example 18, 2-[rac-4-(difluoromethyl)-3-(4-hydroxypiperidine-1-carbonyl)-5,6-dihydro-4H-cyclopenta[c]pyrazol-1-yl]-1-[4-(2,3-dimethylphenyl)piperazin-1-yl]ethanone]"
22,10.3,"Cc1cccc(N2CCN(C(=O)Cn3nc(C(=O)N4CCC5(CC4)COC(=O)N5)c4c3CCC4)CC2)c1C [Example 163, 8-(1-{2-[4-(2,3-dimethylphenyl)piperazin-1-yl]-2-oxoethyl}-1,4,5,6-tetrahydrocyclopenta[c]pyrazole-3-carbonyl)-3-oxa-1,8-diazaspiro[4.5] decan-2-one]"
23,27,"Cc1cccc(N2CCN(C(=O)Cn3nc(C(=O)N4CC[C@@H](O)[C@@H](F)C4)c4c3CC(F)C4)CC2)c1C (mixture of isomers) [Example 417, 1-(4-(2,3-dimethylphenyl)piperazin-1-yl)-2-(5-fluoro-3-((3S,4R)-3-fluoro-4-hydroxypiperidine-1-carbonyl)-5,6-dihydrocyclopenta[c]pyrazol-1(4H)-yl)ethan-1-one]"
